Results published in patent US20210106648A1, “SYNERGISTIC COMBINATION OF CHEMOTHERAPY AND PEPTIDE FOR TREATING CANCER” (TOBEBIO Novel Drug Laboratory Co., Ltd., priority 2019, published 2021).
Counter-ions that a name gives are not always drawn. Ends that are not written are not given here.

Columns and labels:
CT26 colon cancer cells = assay: CT26 colon cancer liver metastasis model; assay type: in vivo, Balb/c mice; details: allostatine-1 5 mg/kg daily s.c.; CPT-11 100 mg/kg weekly i.p.
[1] = tested on: AsPC-1 pancreatic cancer cells; assay type: in vivo, Balb/c nude mice; details: allostatine-1 2.5 mg/kg daily s.c.; paclitaxel 8 mg/kg weekly i.p.

## HGVSGWGQHGTHG [Allostatine-1, linear 13-amino acid analog peptide of alloferon-1]
CT26 colon cancer cells
  median survival days: 30 days
[1]
  Median survival: 97 days

## CCc1c2c(nc3ccc(OC(=O)N4CCC(N5CCCCC5)CC4)cc13)-c1cc3c(c(=O)n1C2)COC(=O)[C@]3(O)CC [CPT-11, Irinotecan hydrochloride]
CT26 colon cancer cells
  median survival days: 35.5 days

## CC(=O)O[C@H]1C(=O)[C@@]2(C)[C@H]([C@H](OC(=O)c3ccccc3)[C@]3(O)C[C@H](OC(=O)[C@H](O)[C@@H](NC(=O)c4ccccc4)c4ccccc4)C(C)=C1C3(C)C)[C@]1(OC(C)=O)CO[C@@H]1C[C@@H]2O [Paclitaxel]
[1]
  Median survival: 108 days
